# Source: the SangsterLogP compilation
# Experiment: method code SF, from DOI: 10.1016/0223-5234(90)90118-m
row,logP,SMILES
1,2.78,O=C(CCl)Nc1ccc2nn(C3CCCC3)nc2c1
2,3.43,CCOC(=O)Nc1ccc2nn(C3CCCC3)nc2c1
3,4.12,O=C(Nc1ccc2nn(C3CCCC3)nc2c1)C(Cl)(Cl)Cl
4,2.44,CS(=O)(=O)Nc1ccc2nn(C3CCCC3)nc2c1
5,4.03,COc1ccc(C(=O)Nc2ccc3nn(C4CCCC4)nc3c2)cc1
6,4.28,CC(C)COC(=O)Nc1ccc2nn(C3CCCC3)nc2c1
7,3.75,O=C(Nc1ccc2nn(C3CCCC3)nc2c1)c1ccc([N+](=O)[O-])cc1
8,3.85,O=C(Nc1ccc2nn(C3CCCC3)nc2c1)c1ccccc1
9,4.95,O=C(Nc1ccc2nn(C3CCCC3)nc2c1)c1ccc(C(F)(F)F)cc1
10,2.45,CC(=O)Nc1ccc2nn(C3CCCC3)nc2c1

# Experiment: not given
row,logP,SMILES
1,3.91,Cc1ccc(S(=O)(=O)Nc2ccc3nn(C4CCCC4)nc3c2)cc1
2,3.4,O=C(Nc1ccc2nn(C3CCCC3)nc2c1)C(Cl)Cl
3,3.87,COc1cc(C(=O)Nc2ccc3nn(C4CCCC4)nc3c2)cc(OC)c1OC
4,3.4,CC(C)(C)C(=O)c1cccc2nn(C3CCCC3)nc12
5,2.73,CC(=O)N(C(C)=O)c1ccc2nn(C3CCCC3)nc2c1
6,5.32,O=C(Nc1ccc2nn(C3CCCC3)nc2c1)c1ccc(Cl)c(Cl)c1
7,4.11,O=C(Nc1ccc2nn(C3CCCC3)nc2c1)c1ccc(Cl)cc1
8,3.82,O=[N+]([O-])c1ccc(S(=O)(=O)Nc2ccc3nn(C4CCCC4)nc3c2)cc1
